# Measurements published in patent publication EP3771464A1, “PEPTIDES AS INHIBITOR OF FIBROTIC MATRIX ACCUMULATION” (Max-Planck-Gesellschaft zur Förderung der Wissenschaften …, priority 2019, dated 2021).
# Entries after “also recorded” stand apart in the source; their conditions may differ. Residues, ends and D or L forms follow the SMILES beside them. No end group written: not given here.
# Test system: CCl4-treated mice
# Assay: CCl4 induced liver fibrosis in mice, collagen in the liver as marker of matrix accumulation
# Assay type: in vivo
# Conditions: Example 2, Figure 1, CCl4 for 6 weeks, peptides 25 mg/kg/mouse/day intraperitoneal, daily from day 32 for 10 days
# Procedure: Figure 1 Prevention of fibrosis progression by proline-containing cyclic and amidated linear peptides. Mice were injected for 6 weeks with CCl4 in order to induce liver fibrosis. Starting on day 32 the mice received daily intraperitoneal injections of 25 mg/kg/mouse/day of the peptides in 0.9% NaCl for a total of 10 days. CCl4-treated mice also received NaCl 0.9%. The healthy control group (CT) only received 0.9% NaCl. N= 4/ 10/ 8/ 5/ 10/ 8/ 11/ 7 in two experiments. The following peptides were tested on CCl4-treated mice: cyclic Pro-Gly-Leu-Gln-Gly-Glu (Cyclic PGLQGE), and compared to two controls: cyclic Pro-Gly-Leu-Asn-Gly-Glu (Cyclic CT1+P: cyclic PGLNGE) and cyclic Pro-Gly-Leu-Hyp-Gly-Glu (Cyclic CT2+P: cyclic PGLOGE). Linear Gly-Leu-Gln-Gly-Glu-NH2 (Linear GLQGE-NH2) was also tested and compared to two controls: linear Gly-Leu-Asn-Gly-Glu-NH2 (Linear CT1-NH2: linear GLNGE-NH2) and linear Gly-Leu-Hyp-Gly-Glu-NH2 (Linear CT2-NH2: linear GLOGE-NH2). *p<0.05. Evaluated by t-test. Data presented as mean +/- SEM. Figure 2 Prevention of fibrosis progression by cyclic peptides and acetylated linear peptides. Mice were injected for 6 weeks with CCl4 in order to induce liver fibrosis. Starting on day 32 the mice received daily intraperitoneal injections of 25 mg/kg/mouse/day of the peptides in 0.9% NaCl for a total of 10 days. CCl4-treated mice also received NaCl 0.9%. The healthy control group (CT) only received 0.9% NaCl. N= 5/ 18/ 9/ 9/ 6/ 5/ 4/ 4 in two experiments. The following peptides were tested on CCl4-treated mice: cyclic Gly-Leu-Gln-Gly-Glu (Cyclic GLQGE), and compared to two controls: cyclic Gly-Leu-Asn-Gly-Glu (Cyclic CT1: cyclic GLNGE) and cyclic Gly-Leu-Hyp-Gly-Glu (Cyclic CT2: cyclic GLOGE). Linear Ac-Gly-Leu-Gln-Gly-Glu (Linear Ac-GLQGE) was also tested and compared to two controls: linear Ac-Gly-Leu-Asn-Gly-Glu (Linear Ac-CT1: linear Ac-GLNGE) and linear Ac-Gly-Leu-Hyp-Gly-Glu (Linear Ac-CT2: linear Ac-GLOGE). *p<0.05, **p<0.005. Evaluated by t-test. Data presented as mean +/- SEM.
# Mice were injected for 6 weeks with CCl4 in order to induce liver fibrosis. Starting on day 32 the mice received daily intraperitoneal injections of the peptides at a final dose of 25 mg/kg/mouse/day diluted in NaCl 0.9% for a total of 10 days. In these experiments, the following peptides were tested: cyclic peptide Pro-Gly-Leu-Gln-Gly-Glu, cyclic peptide Pro-Gly-Leu-Asn-Gly-Glu, cyclic peptide Pro-Gly-Leu-Hyp-Gly-Glu, linear peptide Gly-Leu-Gln-Gly-Glu-NH2, linear peptide Gly-Leu-Asn-Gly-Glu-NH2, linear peptide Gly-Leu-Hyp-Gly-Glu-NH2.
# Mice were injected for 6 weeks with CCl4 in order to induce liver fibrosis. Starting on day 32 the mice received daily intraperitoneal injections of the peptides at a final dose of 25 mg/kg/mouse/day diluted in NaCl 0.9% for a total of 10 days. In these experiments, the following peptides were tested: cyclic peptide Gly-Leu-Gln-Gly-Glu, cyclic peptide Gly-Leu-Asn-Gly-Glu, cyclic peptide Gly-Leu-Hyp-Gly-Glu, linear peptide Ac-Gly-Leu-Gln-Gly-Glu, linear peptide Ac-Gly-Leu-Asn-Gly-Glu, linear peptide Ac-Gly-Leu-Hyp-Gly-Glu.
row,Compound,collagen accumulation
1,"CC(C)C[C@@H]1NC(=O)CNC(=O)[C@@H]2CCCN2C(=O)[C@H](CCC(=O)O)NC(=O)CNC(=O)[C@H](CC(N)=O)NC1=O [Cyclic CT1+P, Pro-Gly-Leu-Asn-Gly-Glu] (HELM PEPTIDE1{E.P.G.L.N.G}$PEPTIDE1,PEPTIDE1,1:R1-6:R2$$$V2.0)",neither the cyclic forms of the control peptides (with Pro: Pro-Gly-Leu-Asn-Gly-Glu or Pro-Gly-Leu-Hyp-Gly-Glu) nor the linear forms of the control peptides Gly-Leu-Asn-Gly-Glu-NH2 and Gly-Leu-Hyp-Gly-Glu-NH2 were able to reduce collagen amount in the liver
2,"CC(C)C[C@@H]1NC(=O)CNC(=O)[C@@H]2CCCN2C(=O)[C@H](CCC(=O)O)NC(=O)CNC(=O)[C@@H]2C[C@@H](O)CN2C1=O [Cyclic CT2+P, Pro-Gly-Leu-Hyp-Gly-Glu] (HELM PEPTIDE1{E.P.G.L.[Hyp].G}$PEPTIDE1,PEPTIDE1,1:R1-6:R2$$$V2.0)",neither the cyclic forms of the control peptides (with Pro: Pro-Gly-Leu-Asn-Gly-Glu or Pro-Gly-Leu-Hyp-Gly-Glu) nor the linear forms of the control peptides Gly-Leu-Asn-Gly-Glu-NH2 and Gly-Leu-Hyp-Gly-Glu-NH2 were able to reduce collagen amount in the liver
3,"CC(C)C[C@@H]1NC(=O)CNC(=O)[C@@H]2CCCN2C(=O)[C@H](CCC(=O)O)NC(=O)CNC(=O)[C@H](CCC(N)=O)NC1=O [Cyclic PGLQGE, Pro-Gly-Leu-Gln-Gly-Glu] (HELM PEPTIDE1{E.P.G.L.Q.G}$PEPTIDE1,PEPTIDE1,1:R1-6:R2$$$V2.0)",able to significantly reduce collagen accumulation
4,"GLQGE-NH2 [Linear GLQGE-NH2, Gly-Leu-Gln-Gly-Glu-NH2]",able to significantly reduce CCl4-induced collagen accumulation

# Same assay, conditions: Example 3, Figure 2, CCl4 for 6 weeks, peptides 25 mg/kg/mouse/day intraperitoneal, daily from day 32 for 10 days
row,Compound,collagen accumulation
1,"CC(C)C[C@@H]1NC(=O)CNC(=O)[C@H](CCC(=O)O)NC(=O)CNC(=O)[C@H](CC(N)=O)NC1=O [Cyclic CT1, Gly-Leu-Asn-Gly-Glu] (HELM PEPTIDE1{E.G.L.N.G}$PEPTIDE1,PEPTIDE1,1:R1-5:R2$$$V2.0)",failed to inhibit collagen accumulation
2,"CC(C)C[C@@H]1NC(=O)CNC(=O)[C@H](CCC(=O)O)NC(=O)CNC(=O)[C@@H]2C[C@@H](O)CN2C1=O [Cyclic CT2, Gly-Leu-Hyp-Gly-Glu] (HELM PEPTIDE1{E.G.L.[Hyp].G}$PEPTIDE1,PEPTIDE1,1:R1-5:R2$$$V2.0)",failed to inhibit collagen accumulation
3,"CC(C)C[C@@H]1NC(=O)CNC(=O)[C@H](CCC(=O)O)NC(=O)CNC(=O)[C@H](CCC(N)=O)NC1=O [Cyclic GLQGE, Gly-Leu-Gln-Gly-Glu] (HELM PEPTIDE1{E.G.L.Q.G}$PEPTIDE1,PEPTIDE1,1:R1-5:R2$$$V2.0)",larger inhibitory effect compared to the linear Gly-Leu-Gln-Gly-Glu-NH2 or Ac-Gly-Leu-Gln-Gly-Glu
4,"CC(=O)NCC(=O)N[C@@H](CC(C)C)C(=O)N1C[C@H](O)C[C@H]1C(=O)NCC(=O)N[C@@H](CCC(=O)O)C(=O)O [Linear Ac-CT2, Ac-Gly-Leu-Hyp-Gly-Glu]",neither the cyclic forms nor the linear forms of the peptides Ac-Gly-Leu-Asn-Gly-Glu and Ac-Gly-Leu-Hyp-Gly-Glu were able to reduce collagen amount in the liver
5,"Ac-GLNGE [Linear Ac-CT1, Ac-Gly-Leu-Asn-Gly-Glu]",neither the cyclic forms nor the linear forms of the peptides Ac-Gly-Leu-Asn-Gly-Glu and Ac-Gly-Leu-Hyp-Gly-Glu were able to reduce collagen amount in the liver
6,"Ac-GLQGE [Linear Ac-GLQGE, Ac-Gly-Leu-Gln-Gly-Glu]",able to significantly reduce CCl4-induced collagen accumulation

# Same assay, conditions: Example 3, Figure 2, CCl4 for 6 weeks, peptides 25 mg/kg/mouse/day intraperitoneal, daily from day 32 for 10 days, listed as cyclic peptide Gly-Leu-Gln-Gly-Glu
row,Compound,collagen accumulation
1,"CC(C)C[C@@H]1NC(=O)CNC(=O)[C@H](CCC(=O)O)NC(=O)CNC(=O)[C@H](CCC(N)=O)NC1=O [Cyclic GLQGE, Gly-Leu-Gln-Gly-Glu] (HELM PEPTIDE1{E.G.L.Q.G}$PEPTIDE1,PEPTIDE1,1:R1-5:R2$$$V2.0)",able to significantly reduce collagen accumulation; also recorded: more efficient in reducing collagen accumulation also in comparison to the cyclic peptide with proline Pro-Gly-Leu-Gln-Gly-Glu

# Test system: TGFβ
# Assay: unstimulated TGFβ expression in murine hepatocytes (data not shown)
# Assay type: cell-based
# Conditions: not given
row,Compound,unstimulated TGFβ expression
1,"CC(C)C[C@H](NC(=O)CN)C(=O)N1C[C@H](O)C[C@H]1C(=O)NCC(=O)N[C@@H](CCC(=O)O)C(N)=O [Linear CT2-NH2, Gly-Leu-Hyp-Gly-Glu-NH2]",had no effect
2,"GLNGE-NH2 [Linear CT1-NH2, Gly-Leu-Asn-Gly-Glu-NH2]",had no effect
3,"GLQGE-NH2 [Linear GLQGE-NH2, Gly-Leu-Gln-Gly-Glu-NH2]",efficiently inhibits unstimulated TGFβ expression in murine hepatocytes
